This is an account of results in patent publication US11052072B2, “Pyrazolo[4,3-C] quinoline derivatives for inhibition of β-glucuronidase” (Kaohsiung Medical University, priority 2015, dated 2021).

Where two headings read alike, the source gives them in different places.

In data set [1] the target is E. coli β-glucuronidase (eβG) (Escherichia coli, UniProt P05804). Briefly: Inhibition of purified recombinant eβG activity (pNPG substrate, OD420). The following applies: for remaining activity at 10 µM: read-out: Percent activity of E. coli-glucuronidase at 10 μM (%); for Inhibition efficacy of eβG activity compared with βG-Inh: FIG. 1; for Selective inhibition of eβG versus hβG (in words): recombinant eβG and hβG, serial dilution of inhibitors (FIG. 1). The class given is biochemical. The method, then:
(§1) The pyrazolo[4,3-c]quinoline derivatives were examined for their inhibition against eβG or hβG activity. Purified recombinant eβG or hβG proteins were incubated with serial dilution of the inhibitors, respectively. The βG activity was determined by color development of a βG substrate, pNPG. The hydrolysis product of pNPG, PNP was measured by OD420.

The target in data set [2] is T1, human liver-glucuronidase (hβG) (Homo sapiens, UniProt P08236).
T1 sequence (P08236 23-651): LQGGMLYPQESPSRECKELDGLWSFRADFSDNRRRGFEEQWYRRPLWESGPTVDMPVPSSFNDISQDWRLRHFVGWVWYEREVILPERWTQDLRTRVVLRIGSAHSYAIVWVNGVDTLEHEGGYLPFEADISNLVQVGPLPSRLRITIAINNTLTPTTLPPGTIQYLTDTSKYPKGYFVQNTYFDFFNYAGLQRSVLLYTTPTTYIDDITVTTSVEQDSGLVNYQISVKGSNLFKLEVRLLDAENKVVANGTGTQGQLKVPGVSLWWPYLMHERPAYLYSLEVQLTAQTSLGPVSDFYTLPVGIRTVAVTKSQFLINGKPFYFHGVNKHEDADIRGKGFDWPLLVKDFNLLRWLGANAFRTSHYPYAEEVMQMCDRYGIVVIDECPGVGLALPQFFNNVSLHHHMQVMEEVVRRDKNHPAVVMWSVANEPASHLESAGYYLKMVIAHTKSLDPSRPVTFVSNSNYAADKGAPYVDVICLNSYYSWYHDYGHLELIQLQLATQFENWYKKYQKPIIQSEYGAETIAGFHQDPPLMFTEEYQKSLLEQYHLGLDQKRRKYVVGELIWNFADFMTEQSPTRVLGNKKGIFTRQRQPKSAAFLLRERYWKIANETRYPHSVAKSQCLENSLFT
As to the kind of experiment: Inhibition of purified recombinant hβG activity (pNPG substrate, OD420). As to conditions: read-out: Percent activity of human liver-glucuronidase at 10 μM (%). The class given is biochemical. On the procedure: as §1

Data set [3] has as its target T2, endogenous eβG activity (Escherichia coli, UniProt P05804).
T2 construct: endogenous in cells; host or cells: BL21 E. coli
Briefly: Endogenous β-glucuronidase activity assay in BL21 E. coli cells. The class given is cell-based. The following applies: at both low (10 μM) or high concentration (50 μM) (FIG. 2). On the procedure:
The pyrazolo[4,3-c]quinoline derivatives were examined for their inhibition against endogenous eβG activity. This assay is similar with the in vitro assay. BL21 E. coli cells were grown to an OD600 of 0.35 in LB medium. E. coli were 4 times diluted and incubated with each inhibitor. The endogenous eβG activity was measured by detecting PNP as described.

For data set [4], the system named is TOP10 E. coli cells. Briefly: E. coli growth assay (OD600). The following applies: 100 μM; OD600 at 6 hour after treatment; TOP10 E. coli (FIG. 4). The class given is cell-based. On the procedure: The pyrazolo[4,3-c]quinoline derivatives were examined for effects on the growth of E. coli. TOP10 E. coli cells were grown to an OD600 of 0.35 in LB medium and treated with each inhibitor. E. coli cell cultures were monitored by reading OD600 at 6 hour after treatment. The cell viability were compared to non-inhibitor control group and shown in % control.

Data set [5] relates to intestinal βG activity. As to the kind of experiment: In vivo image of intestinal β-glucuronidase activity (FDGlcU pro-probe). The arrangement: species or system Balb/cJ mice. As to conditions: mice, oral 60 μg/200 μl per day for five days; FDGlcU on sixth day (FIG. 5A). The method, then: 17 (TCH-3511) or 32 (TCH-3510) was examined for its inhibition against intestinal βG activity in mice by in vivo image of eβG activity. 5 (TCH-3562), 17 (TCH-3511) or 32 (TCH-3510) was dissolved in ddH2O. Healthy 6-10 week old female Balb/cJ mice were oral administrated with 5 (TCH-3562), 17 (TCH-3511), 32 (TCH-3510) or ddH2O per day (60 μg/200 μl) for five consecutive days. FDGlcU, a βG fluorescent pro-probe was oral feed at the sixth day. The βG activity was detected by in vivo optical imaging system.

[6] abbreviates: 10 μM, purified recombinant hβG, pNPG, means ± S.D. of at least three separate experiments.

T2 sequence (P05804 whole entry): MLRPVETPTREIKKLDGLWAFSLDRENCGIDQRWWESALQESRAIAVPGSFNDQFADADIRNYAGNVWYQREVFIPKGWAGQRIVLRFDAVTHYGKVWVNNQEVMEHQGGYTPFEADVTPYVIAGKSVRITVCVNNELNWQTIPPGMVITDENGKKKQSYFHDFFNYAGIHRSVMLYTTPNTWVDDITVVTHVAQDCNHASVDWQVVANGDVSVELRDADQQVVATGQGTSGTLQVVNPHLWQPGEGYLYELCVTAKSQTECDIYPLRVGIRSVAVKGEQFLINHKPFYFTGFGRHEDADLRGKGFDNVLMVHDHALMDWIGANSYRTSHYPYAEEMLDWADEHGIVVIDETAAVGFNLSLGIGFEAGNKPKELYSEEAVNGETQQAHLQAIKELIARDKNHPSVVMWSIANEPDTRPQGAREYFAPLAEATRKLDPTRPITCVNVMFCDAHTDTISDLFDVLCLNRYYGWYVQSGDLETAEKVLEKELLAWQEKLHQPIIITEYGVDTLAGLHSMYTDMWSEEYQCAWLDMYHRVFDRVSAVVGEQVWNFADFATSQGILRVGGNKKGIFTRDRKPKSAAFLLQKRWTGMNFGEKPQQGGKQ
Sequence of E. coli β-glucuronidase (eβG) (P05804 whole entry): as above

On to `Cc1cccc2c1nc(Nc1ccc(Cl)cc1)c1c(N)n[nH]c12` [Compound 6, N^4-(4-Chlorophenyl)-6-methyl-1H-pyrazolo[4,3-c]quinoline-3,4-diamine], for which the melting point (usually the temperature, or range, at which the solid turns liquid) lay in the range of 249 to 250 °C. Besides, in data set [1], the remaining activity at 10 µM worked out at 6 ± 1%. The remaining activity at 10 µM in data set [2] (setting [6]) was 78.5 ± 0.71%.

`COc1ccc(NC(=O)Nc2n[nH]c3c2c(=O)[nH]c2ccccc23)cc1` [Compound 35, 1-(4-Methoxyphenyl)-3-(4-oxo-4,5-dihydro-1H-pyrazolo[4,3-c]-quinolin-3-yl)urea] gave a melting point of 224 to 225 °C. Further, in data set [1], the remaining activity at 10 µM turned out to be 52 ± 4.24%. Moreover, the remaining activity at 10 µM in data set [2] (setting [6]) worked out at 81.5 ± 0.71%.

The compound `Cc1ccc(Nc2nc3c(C)cccc3c3[nH]nc(N)c23)cc1` [Compound 7, 6-Methyl-N^4-(p-tolyl)-1H-pyrazolo[4,3-c]quinoline-3,4-diamine] showed a melting point of 270 to 271 °C. The remaining activity at 10 µM in data set [1] was found to be 3 ± 1%. Also, the remaining activity at 10 µM in data set [2] (setting [6]) turned out to be 74 ± 1%.

As for `COc1ccc(Nc2nc3ccccc3c3[nH]nc(N)c23)cc1` [Compound 19, 3-Amino-4-(4-methoxyphenylamino)-1H-pyrazolo[4,3-c]quinoline], the melting point was 228 to 230 °C. Besides, the remaining activity at 10 µM in data set [1] was determined as 3 ± 1%. In data set [2] (setting [6]), the remaining activity at 10 µM was 102 ± 2.12%.

For the compound `COc1cccc(Nc2nc3ccccc3c3[nH]nc(N)c23)c1` [Compound 27, 3-Amino-4-(3-methoxyphenylamino)-1H-pyrazolo[4,3-c]quinoline], the melting point was 184 to 186 °C. The remaining activity at 10 µM in data set [1] was 8 ± 1.41%. In addition, in data set [2] (setting [6]), the remaining activity at 10 µM came to 107 ± 1.41%.

On to `Nc1n[nH]c2c1c(Nc1ccc(Cl)cc1)nc1ccccc12` [Compound 4, 3-Amino-4-(4-chlorophenylamino)-1H-pyrazolo[4,3-c]quinoline], for which the melting point was in the range of 246 to 248 °C. Also, in data set [1], the “Inhibition efficacy of eβG activity compared with βG-Inh” value is “better inhibition efficacy of eβG activity than βG-Inh”, the remaining activity at 10 µM was found to be 4.5 ± 0.71% and the “Selective inhibition of eβG versus hβG (in words)” value (shortened to “Selective inhibition”) is listed as “selectively inhibited eβG activity but not hβG”. For the same compound, the remaining activity at 10 µM in data set [2] (setting [6]) was found to be 113 ± 2.83%. In addition, in data set [3], the “Inhibition efficacy of endogenous eβG activity compared with βG-Inh” value is “better inhibition efficacy of endogenous eβG activity than βG-Inh”.

For `Nc1ccc(Nc2nc3ccccc3c3[nH]nc(N)c23)cc1` [Compound 16, 3-Amino-4-(4-aminophenylamino)-1H-pyrazolo[4,3-c]quinoline], the melting point was 355 to 356 °C. For the same compound, the remaining activity at 10 µM in data set [1] came to 8 ± 1%. The remaining activity at 10 µM in data set [2] (setting [6]) amounted to 82.5 ± 3.54%.

For `Nc1n[nH]c2c1c(Nc1ccc(C(F)(F)F)cc1)nc1ccccc12` [Compound 18, 3-Amino-4-(4-trifluoromethylphenylamino)-1H-pyrazolo[4,3-c]quinoline], the melting point is 251 to 252 °C. In addition, the remaining activity at 10 µM in data set [1] turned out to be 4.5 ± 0.71%. For the same compound, the remaining activity at 10 µM in data set [2] (setting [6]) worked out at 106 ± 2.83%.

In turn, `Cc1ccccc1Nc1nc2ccccc2c2[nH]nc(N)c12` [Compound 30, N^4-(o-Tolyl)-1H-pyrazolo[4,3-c]quinoline-3,4-diamine] had a melting point of 228 to 230 °C. Further, the remaining activity at 10 µM in data set [1] was found to be 17 ± 2.1%. Also, in data set [2] (setting [6]), the remaining activity at 10 µM turned out to be 95.69 ± 0.01%.

Consider `Nc1n[nH]c2c1c(Nc1ccc(Cl)cc1)nc1ccc(Br)cc12` [Compound 12, 8-Bromo-N^4-(4-chlorophenyl)-1H-pyrazolo[4,3-c]quinoline-3,4-diamine], for which the melting point is 264 °C (dec.). In data set [1], the remaining activity at 10 µM came to 5 ± 1%. Besides, the remaining activity at 10 µM in data set [2] (setting [6]) was determined as 79.3 ± 2.63%.

As for `COc1ccccc1Nc1nc2ccccc2c2[nH]nc(N)c12` [Compound 32, 3-Amino-4-(2-methoxyphenylamino)-1H-pyrazolo[4,3-c]quinoline], the melting point fell in the range of 210 to 211 °C. Moreover, in data set [1], the “Inhibition efficacy of eβG activity compared with βG-Inh” value is “better inhibition efficacy of eβG activity than βG-Inh”, the remaining activity at 10 µM is 3.5 ± 0.71% and the “Selective inhibition” value is reported as “selectively inhibited eβG activity but not hβG”. In addition, in data set [2], the remaining activity at 10 µM is 103 ± 1.41%. For the same compound, the “Inhibition efficacy of endogenous eβG activity compared with βG-Inh” value in data set [3] is “better inhibition efficacy of endogenous eβG activity than βG-Inh”. In addition, in data set [4], the “Effects on E. coli growth” value is recorded as “no effects on E. coli growth”. Moreover, in data set [5], the “Inhibition of intestinal βG activity (fluorescence signal in the intestine)” value is “significantly inhibit intestinal βG activity”.

`Nc1n[nH]c2c1c(Nc1ccccc1O)nc1ccccc12` [Compound 29, 3-Amino-4-(2-hydroxyphenylamino)-1H-pyrazolo[4,3-c]quinoline] gave a melting point of 156 to 157 °C. Moreover, the remaining activity at 10 µM in data set [1] stood at 7 ± 1%. The remaining activity at 10 µM in data set [2] (setting [6]) came out at 104 ± 2.12%.

Compound `Nc1n[nH]c2c1c(Nc1ccccc1)nc1ccccc12` [Compound 14, 3-Amino-4-anilino-1H-pyrazolo[4,3-c]quinoline] displayed a melting point of 256 to 258 °C. Also, in data set [1], the remaining activity at 10 µM came to 4 ± 1%. In data set [2] (setting [6]), the remaining activity at 10 µM was found to be 105.5 ± 0.71%.

Compound `Nc1n[nH]c2c1c(Nc1ccc(O)cc1)nc1ccccc12` [Compound 15, 3-Amino-4-(4-hydroxyphenylamino)-1H-pyrazolo[4,3-c]quinoline] registered a melting point of 347 to 349 °C. Also, the remaining activity at 10 µM in data set [1] stood at 7 ± 1%. Also, the remaining activity at 10 µM in data set [2] (setting [6]) is 95 ± 4.24%.

For `Cc1ccc(Nc2nc3ccccc3c3[nH]nc(N)c23)cc1` [Compound 5, 3-Amino-4-(4-methylphenylamino)-1H-pyrazolo[4,3-c]quinoline], the melting point lay in the range of 292 to 294 °C. Besides, in data set [1], the “Inhibition efficacy of eβG activity compared with βG-Inh” value is reported as “better inhibition efficacy of eβG activity than βG-Inh”, the remaining activity at 10 µM worked out at 4.5 ± 0.71% and the “Selective inhibition” value is reported as “selectively inhibited eβG activity but not hβG”. Besides, in data set [2] (setting [6]), the remaining activity at 10 µM amounted to 110 ± 2.12%. In data set [3], the “Inhibition efficacy of endogenous eβG activity compared with βG-Inh” value is “better inhibition efficacy of endogenous eβG activity than βG-Inh”. Besides, the “Effects on E. coli growth” value in data set [4] is listed as “no effects on E. coli growth”.
